# Measurements as given in patent publication US20070066681A1, “Pharmaceutical composition for treating fatty liver or hepatic disease” (CHUGAI SEIYAKU KAUSHIKI KAISHA, priority 2003, published 2007).
# What was measured:
# Type in all cases: in vivo
# [1] = tested on: excess apoAI expressing mice fed with high fat diet; experiment: Action of BO-653 on excess apoAI expressing mice fed with high fat diet (fatty liver and associated hepatic disease); conditions: for AST (serum) / Liver weight / Total cholesterol (serum): 0.6% BO-653 or 0.5% probucol in high fat diet, 37 weeks of feeding, mean ± standard error; for blood AST compared with high fat diet group (in words) / liver weight compared with high fat diet group (in words): drug-containing high fat diet vs high fat diet only, 37 weeks
# Text: The therapeutic activity of BO-653 against fatty liver and associated hepatic disease was investigated using excess apoAI expressing mice which were fed with a high fat diet to induce fatty liver and further develop hepatic diseases.
# ApoAI, i.e., apolipoprotein AI, is an apolipoprotein constituting high density lipoproteins mainly responsible for blood lipid metabolism in rodents including mice. In mice expressing excess apoAI, blood cholesterol levels are originally high. Thus, even if they are fed with a high fat diet for causing the onset of fatty liver, increases in blood cholesterol are relatively small. Such mice are advantageous in that the influence of changes in blood cholesterol on the results of the test need not be considered in evaluating the therapeutic activity of BO-653 against fatty liver and associated hepatic disease.
# (§1) Mice expressing excess apoAI (female, 10 to 11 weeks of age, purchased from Jackson Laboratories) were divided into 4 groups of N-animals. The animals of the respective groups were fed with a normal diet, a high fat diet, a 0.6% BO-653-containing high fat diet (hereinafter referred to as B+ high fat diet), and a 0.5% probucol-containing high fat diet (hereinafter referred to as P+ high fat diet).
# (§2) The B+high fat diet and the P+ high fat diet were prepared by removing cellulose in amounts corresponding to 0.60% and 0.50%, respectively, from the high fat diet of the above composition, and adding the corresponding amounts of BO-653 and probucol, respectively, to the remaining composition. Probucol is a liposoluble antioxidant.
# (§3) Serum was separated from the collected blood, and AST and total cholesterol in the serum were measured with an autoanalyzer (COBS FARAII ROCHE). The entire body of the animal subjected to the laparotomy and blood collection was perfused with physiological saline, and the weight of the liver was measured.
# [2] = tested on: C57BL/6J mice fed with high fat diet; experiment: Same high fat diet test in C57BL/6J mice expressing apolipoprotein AI normally; conditions: B+ high fat diet (0.6% BO-653), only high fat diet: 275±31
# Protocol: as §1, §2, §3
# (§4) The same tests were conducted using C57BL/6J mice (female, 6 weeks of age, purchased from CLEA Japan) expressing apolipoprotein AI normally, and apoAI deficiency mice (female, 10 to 11 weeks of age, purchased from Jackson Laboratories) expressing no apolipoprotein AI in contrast to the animals in the present Test Example.
# [3] = tested on: apoAI deficiency mice fed with high fat diet; experiment: Same high fat diet test in apoAI deficiency mice; conditions: B+ high fat diet (0.6% BO-653), only high fat diet: 159±10
# Protocol: as §1, §2, §3, §4
# apoE deficiency mice = experiment: Effect of BO-653 in apoE deficiency mice
# Protocol: Besides, the effect of BO-653 was tested using apoE deficiency mice. These mice are known as mice showing high blood total cholesterol levels even on a normal diet and, at the same time, show high blood AST even on a normal diet.
SMILES,AST (serum) [1] [U/L],Liver weight [1] [mg],Total cholesterol (serum) [1] [mg/dL],"suppression of AST leakage from liver cells, action relative to probucol ([1]; decline in blood AST, B+ vs P+ high fat diet)",blood AST compared with high fat diet group (in words) [1],liver weight compared with high fat diet group (in words) [1],serum AST [2],blood ASL [3],blood AST (apoE deficiency mice),blood total cholesterol values (apoE deficiency mice)
"CCCCCC1(CCCCC)Cc2c(cc(C(C)(C)C)c(O)c2C(C)(C)C)O1 [BO-653, 4,6-di-t-butyl-5-hydroxy-2,2-di-n-pentyl-2,3-dihydrobenzofuran]",96 ± 7,2789 ± 106,353 ± 32,several times as high as that of probucol,greatly lower,significantly less,181±18,85±8,lowered,without involving changes
"CC(C)(Sc1cc(C(C)(C)C)c(O)c(C(C)(C)C)c1)Sc1cc(C(C)(C)C)c(O)c(C(C)(C)C)c1 [probucol, reference compound]",218 ± 18,2923 ± 185,203 ± 10,,not as great as those in the B+ high fat diet group,not as great as those in the B+ high fat diet group,,,,
